Columns and labels:
Assay type in all cases: in vivo, C57BL/6 mice
spleen (SP) = experiment: Whole organ transcriptome (GeneChip microarray) of spleen 6 h after adjuvant administration: sDEGs, hierarchical clustering; conditions: for adjuvant group (cluster) in SP: hierarchical clustering; for Number of gene probes with statistically significant changes (sDEGs), SP, Down: fold change <0.667, p<0.01, customized PA call=1, 6 h after adjuvant; for Number of gene probes with statistically significant changes (sDEGs), SP, Up: fold change >1.5, p<0.01, customized PA call=1, 6 h after adjuvant; for adjuvant group (cluster) in SP: key: G1 (interferon signaling); G2 (metabolism of lipids and lipoproteins); G3 (response to stress); G4 (response to wounding); G5 (phosphate-containing compound metabolic process); G6 (phagosome)
[1] = test system: inguinal lymph nodes (LN); experiment: Whole organ transcriptome (GeneChip microarray) of draining inguinal lymph nodes 6 h after adjuvant administration: sDEGs, gene modules, hierarchical clustering; for adjuvant group (cluster) in LN: key: G1 (interferon signaling); G2 (metabolism of lipids and lipoproteins); G3 (response to stress); G4 (response to wounding); G5 (phosphate-containing compound metabolic process); G6 (phagosome); conditions: for adjuvant group (cluster) in LN: hierarchical clustering; for adjuvant group (cluster) in LN / Number of gene probes with statistically significant changes (sDEGs), LN, Down / Number of gene probes with statistically significant changes (sDEGs), LN, Up: lymph node; for Number of gene probes with statistically significant changes (sDEGs), LN, Down / Number of gene probes with statistically significant changes (sDEGs), LN, Up: i.d. administration, 6 h after adjuvant; for Number of gene probes with statistically significant changes (sDEGs), LN, Down: fold change <0.667, p<0.01, customized PA call=1; for Number of gene probes with statistically significant changes (sDEGs), LN, Up: fold change >1.5, p<0.01, customized PA call=1
LV, SP and LNs = experiment: Whole organ transcriptome across organs (adjuvant gene space): gene responses and adjuvant grouping; conditions: for adjuvant group (cluster) within the adjuvant gene space: hierarchical clustering, LV, SP and/or LNs; for gene expression changes in LV and SP: Table 15, route not given; for distribution/strength of gene responses between local LNs and systemic organs (LV, SP): 6 h after i.d. (local) administration

Compound | adjuvant group (cluster) in SP (spleen (SP)) | Number of gene probes with statistically significant changes (sDEGs), SP, Down (spleen (SP); i.d. administration) | Number of gene probes with statistically significant changes (sDEGs), SP, Up (spleen (SP); i.d. administration) | module M40^LN (immune system process; dendritic cells, macrophages, neutrophils, stromal cells) ([1]; LN, 6 h) | adjuvant group (cluster) in LN [1] | Number of gene probes with statistically significant changes (sDEGs), LN, Down [1] | Number of gene probes with statistically significant changes (sDEGs), LN, Up [1] | adjuvant group (cluster) within the adjuvant gene space (LV, SP and LNs) | Number of gene probes with statistically significant changes (sDEGs), SP, Down (spleen (SP); i.p. administration) | Number of gene probes with statistically significant changes (sDEGs), SP, Up (spleen (SP); i.p. administration) | gene expression changes in LV and SP (LV, SP and LNs; 6 h) | distribution/strength of gene responses between local LNs and systemic organs (LV, SP) (LV, SP and LNs) | genes in module 16 of the LNs (M16^LN), phagosome-related, macrophage-associated ([1]; LN, 6 h) | module M15^LN (immune system process, T cell associated) ([1]; LN, 6 h) | consistency of gene responses among individual mice and organs (LV, SP and LNs; 6 h, FIG. 5)
Cc1ccc2c(=O)c3cccc(CC(=O)O)c3oc2c1C [DMXAA, 5,6-dimethylxanthenone-4-acetic acid] | G1 | 48 | 121 | strongly induced | G1 | 261 | 1342 | group (G) 1 |  |  |  |  |  |  | 
CCOCc1nc2c(N)nc3ccccc3c2n1CC(C)(C)O [R848, 4-amino-2-(ethoxymethyl)-a,a-dimethyl-1H-imidazo[4,5-c]quinoline-1-ethanol] | G1 |  |  |  | G1 |  |  |  |  |  |  |  |  |  | 
CC(O)COC[C@H]1O[C@@H]2O[C@H]3[C@H](O)[C@@H](O)[C@@H](O[C@H]4[C@H](O)[C@@H](O)[C@@H](O[C@H]5[C@H](O)[C@@H](O)[C@@H](O[C@H]6[C@H](O)[C@@H](O)[C@@H](O[C@H]7[C@H](O)[C@@H](O)[C@@H](O[C@H]8[C@H](O)[C@@H](O)[C@@H](O[C@H]1[C@H](O)[C@H]2O)O[C@@H]8COCC(C)O)O[C@@H]7COCC(C)O)O[C@@H]6COCC(C)O)O[C@@H]5COCC(C)O)O[C@@H]4COCC(C)O)O[C@@H]3COCC(C)O (stereo partly drawn) [bCD, Hydroxypropyl-beta-cyclodextrin] | G2 | 59 | 111 |  | G2 | 110 | 89 | G2 | 5 | 4 | relatively weaker responses |  |  |  | 
Nc1nc2c(ncn2[C@@H]2O[C@@H]3COP(=O)(O)O[C@H]4[C@@H](O)[C@H](n5cnc6c(N)ncnc65)O[C@@H]4COP(=O)(O)O[C@@H]2[C@@H]3O)c(=O)[nH]1 [cGAMP, Cyclic [G(2′,5′)pA(3′,5′)p]] | G1 | 93 | 680 | strongly induced | G1 | 255 | 1135 | group (G) 1 |  |  |  |  |  |  | 
Nc1nc2c(ncn2[C@@H]2O[C@@H]3COP(=O)(O)O[C@H]4[C@@H](O)[C@H](n5cnc6c(=O)[nH]c(N)nc65)O[C@@H]4COP(=O)(O)O[C@H]3[C@H]2O)c(=O)[nH]1 [cdiGMP, Cyclic diguanylate monophosphate] | G1 |  |  | strongly induced | G1 |  |  | group (G) 1 |  |  |  |  |  |  | 
D35: A class CpG ODN (5′-GGTGCATCGATGCAGGGGGG-3′), TLR9 ligand (DNA GGTGCATCGATGCAGGGGGG; chemistry not given here) |  | 19 | 23 |  | G5 | 12 | 69 | G5 |  |  |  | acted on local LNs but not in the systemic remote organs |  |  | 
K3: B class CpG ODN (ATCGACTCTCGAGCGTTCTC), TLR9 ligand (chemistry not given here) |  | 18 | 11 |  | G5 | 18 | 53 | G5 | 10 | 24 | relatively weaker responses | acted on local LNs but not in the systemic remote organs | upregulated | weakly induced | 
Monophosphoryl lipid A [MPLA] |  | 22 | 9 |  | G1 | 18 | 8 |  |  |  |  | acted on local LNs but not in the systemic remote organs |  |  | varying gene responses among the individual mice and organs
heptanoyl-γ-D-glutamyl-(L)-meso-diaminopimelyl-(D)-alanine [FK565] | G3 | 624 | 1672 |  | G3 | 306 | 526 | G3 |  |  |  | greater responses in LV and SP than in LNs |  |  | 
